The values below come from US8299048B2, “Hexahydrocyclopentyl[f]indazole sulfonamides and derivatives thereof as selective glucocorticoid receptor modulators” (Merck Sharp & Dohme Corp., priority 2008, dated 2012).

SMILES strings stand for the structures.

Usually Ki stands for the equilibrium dissociation constant of an inhibitor or competing ligand from its target. A high value points to a looser hold on the target.

The target in this experiment is T1, glucocorticoid receptor (Homo sapiens, UniProt P04150).
T1 construct: endogenous in cells
T1 sequence (P04150 1-777): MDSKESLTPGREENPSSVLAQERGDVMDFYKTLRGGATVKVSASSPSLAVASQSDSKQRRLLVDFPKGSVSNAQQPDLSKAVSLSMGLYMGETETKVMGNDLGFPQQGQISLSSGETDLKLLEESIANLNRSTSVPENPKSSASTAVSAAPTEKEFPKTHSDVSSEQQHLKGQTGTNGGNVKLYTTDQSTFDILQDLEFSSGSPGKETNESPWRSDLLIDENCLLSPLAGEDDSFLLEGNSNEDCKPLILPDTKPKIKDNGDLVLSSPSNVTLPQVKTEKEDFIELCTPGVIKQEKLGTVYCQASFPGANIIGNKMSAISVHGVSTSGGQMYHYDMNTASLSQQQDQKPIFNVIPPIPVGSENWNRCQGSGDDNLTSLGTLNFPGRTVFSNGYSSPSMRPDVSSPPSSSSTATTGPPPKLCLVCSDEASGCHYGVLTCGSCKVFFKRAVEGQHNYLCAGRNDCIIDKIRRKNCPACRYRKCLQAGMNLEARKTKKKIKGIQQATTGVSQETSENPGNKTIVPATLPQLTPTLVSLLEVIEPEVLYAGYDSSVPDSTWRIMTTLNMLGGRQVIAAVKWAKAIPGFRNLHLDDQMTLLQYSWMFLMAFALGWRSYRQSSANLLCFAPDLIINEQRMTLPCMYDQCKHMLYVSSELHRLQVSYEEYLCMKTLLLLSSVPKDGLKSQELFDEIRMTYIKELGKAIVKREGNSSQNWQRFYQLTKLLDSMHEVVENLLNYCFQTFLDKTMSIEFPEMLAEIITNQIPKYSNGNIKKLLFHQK
The experiment in a line: Ligand binding assay (GR BIND). The procedure, abridged: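 Displacement of tritiated dexamethasone (6 nM trace solution) from receptor in cell supernatant was measured after overnight incubation at 4 °C in molybdate-containing TEGM, pH 7.2, 2% ethanol. Hydroxylapatite pulled down the receptor–ligand complex for filter washing and scintillation counting, with dexamethasone as reference.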
Consider `C[C@]12Cc3cnn(-c4ccc(F)cc4)c3C=C1CC[C@@H]2CN(CCO)S(=O)(=O)c1ccc(F)c(F)c1` [Example 59], for which the Ki is 2.6 nM.

`C[C@]12Cc3cnn(-c4ccc(F)cc4)c3C=C1CC[C@@H]2CN(CCO)S(=O)(=O)c1ccc(C#N)cc1Cl` [Example 60, 2-chloro-4-cyano-N-{[(4αR,5S)-1-(4-fluorophenyl)-4α-methyl-1,4,4α,5,6,7-hexahydrocyclopenta[f]indazol-5-yl]methyl}-N-(2-hydroxyethyl)benezenesulfonamide] showed a Ki of 4.4 nM.

`C[C@]12Cc3cnn(-c4ccc(F)cc4)c3C=C1CC[C@@H]2CN(CCO)S(=O)(=O)c1cccc(Cl)c1Cl` [Example 61, 2,3-dichloro-N-{[(4αR,5S)-1-(4-fluorophenyl)-4α-methyl-1,4,4α,5,6,7-hexahydrocyclopenta[f]indazol-5-yl]methyl}-N-(2-hydroxyethyl)benezenesulfonamide] came in with a Ki of 2.5 nM.

In the case of `C[C@]12Cc3cnn(-c4ccc(F)cc4)c3C=C1CC[C@@H]2CNS(=O)(=O)Cc1cccnc1` [Example 169, N-{[(4αR,5S)-1-(4-fluorophenyl)-4α-methyl-1,4,4α,5,6,7-hexahydrocyclopenta[f]indazol-5-yl]methyl}-1-pyridin-3-ylmethanesulfonamide], the Ki stood at 20.9 nM.

Turning to `Cc1noc(C)c1S(=O)(=O)N(CC1CCCO1)C[C@H]1CCC2=Cc3c(cnn3-c3ccc(F)cc3)C[C@@]21C` (stereo partly drawn) [Example 170, N-{[(4αR,5S)-1-(4-fluorophenyl)-4α-methyl-1,4,4α,5,6,7-hexahydrocyclopenta[f]indazol-5-yl]methyl}-3,5-dimethyl-N-(tetrahydrofuran-2-ylmethyl)isoxazole-4-sulfonamide], the affinity, expressed as Ki, was 2.6 nM.

In turn, `CCS(=O)(=O)N(CCOC)C[C@H]1CCC2=Cc3c(cnn3-c3ccc(F)cc3)C[C@@]21C` [Example 171, N-{[(4αR,5S)-1-(4-fluorophenyl)-4α-methyl-1,4,4α,5,6,7-hexahydrocyclopenta[f]indazol-5-yl]methyl}-N-(2-methoxyethyl)ethanesulfonamide] had a Ki of 7 nM.

Molecule `COCCN(C[C@H]1CCC2=Cc3c(cnn3-c3ccc(F)cc3)C[C@@]21C)S(=O)(=O)c1cn(C)nc1C(F)(F)F` [Example 172, N-{[(4αR,5S)-1-(4-fluorophenyl)-4α-methyl-1,4,4α,5,6,7-hexahydrocyclopenta[f]indazol-5-yl]methyl}-N-(2-methoxyethyl)-1-methyl-3-(trifluoromethyl)-1H-pyrazole-4-sulfonamide] had a Ki of 0.6 nM.

Molecule `COCCN(C[C@H]1CCC2=Cc3c(cnn3-c3ccc(F)cc3)C[C@@]21C)S(=O)(=O)c1c(C)noc1C` [Example 173, N-{[(4αR,5S)-1-(4-fluorophenyl)-4α-methyl-1,4,4α,5,6,7-hexahydrocyclopenta[f]indazol-5-yl]methyl}-N-(2-methoxyethyl)-3,5-dimethylisoxazole-4-sulfonamide] registered a Ki of 1.3 nM.

For `CCS(=O)(=O)N(CC1CCCO1)C[C@H]1CCC2=Cc3c(cnn3-c3ccc(F)cc3)C[C@@]21C` (stereo partly drawn) [Example 174, N-{[(4αR,5S)-1-(4-fluorophenyl)-4α-methyl-1,4,4α,5,6,7-hexahydrocyclopenta[f]indazol-5-yl]methyl}-N-(tetrahydrofuran-2-ylmethyl)ethanesulfonamide], the Ki stood at 3.4 nM.

As to `Cn1cc(S(=O)(=O)N(CC2CCCO2)C[C@H]2CCC3=Cc4c(cnn4-c4ccc(F)cc4)C[C@@]32C)c(C(F)(F)F)n1` (stereo partly drawn) [Example 175, N-{[(4αR,5S)-1-(4-fluorophenyl)-4α-methyl-1,4,4α,5,6,7-hexahydrocyclopenta[f]indazol-5-yl]methyl}-1-methyl-N-(tetrahydrofuran-2-ylmethyl)-3-(trifluoromethyl)-1H-pyrazole-4-sulfonamide], the Ki is 1 nM.

`Cc1noc(C)c1S(=O)(=O)N(C)C[C@H]1CCC2=Cc3c(cnn3-c3ccc(F)cc3)C[C@@]21C` [Example 176, N-{[(4αR,5S)-1-(4-fluorophenyl)-4α-methyl-1,4,4α,5,6,7-hexahydrocyclopenta[f]indazol-5-yl]methyl}-N,3,5-trimethylisoxazole-4-sulfonamide] showed a Ki of 1.3 nM.

In turn, `CN(C[C@H]1CCC2=Cc3c(cnn3-c3ccc(F)cc3)C[C@@]21C)S(=O)(=O)CC(F)(F)F` [Example 177, 2,2,2-trifluoro-N-{[(4αR,5S)-1-(4-fluorophenyl)-4α-methyl-1,4,4α,5,6,7-hexahydrocyclopenta[f]indazol-5-yl]methyl}-N-methylethanesulfonamide] displayed a Ki of 1.6 nM.

As for `CCN(C[C@H]1CCC2=Cc3c(cnn3-c3ccc(F)cc3)C[C@@]21C)S(=O)(=O)c1c(C)noc1C` [Example 178, N-ethyl-N-{[(4αR,5S)-1-(4-fluorophenyl)-4α-methyl-1,4,4α,5,6,7-hexahydrocyclopenta[f]indazol-5-yl]methyl}-3,5-dimethylisoxazole-4-sulfonamide], the Ki came out at 1.2 nM.

In the case of `CCN(C[C@H]1CCC2=Cc3c(cnn3-c3ccc(F)cc3)C[C@@]21C)S(=O)(=O)CC(F)(F)F` [Example 179, N-ethyl-2,2,2-trifluoro-N-{[(4αR,5S)-1-(4-fluorophenyl)-4α-methyl-1,4,4α,5,6,7-hexahydrocyclopenta[f]indazol-5-yl]methyl}ethanesulfonamide], affinity was put at a Ki of 1.2 nM.

For the molecule `COC(=O)c1ccccc1CS(=O)(=O)N(C[C@H]1CCC2=Cc3c(cnn3-c3ccc(F)cc3)C[C@@]21C)C[C@@H](C)O` [Example 180, methyl 2-[({{[(4αR,5S)-1-(4-fluorophenyl)-4α-methyl-1,4,4α,5,6,7-hexahydrocyclopenta[f]indazol-5-yl]methyl}[(2R)-2-hydroxypropyl]amino}sulfonyl)methyl]benzoatee], the affinity corresponds to a Ki of 1.8 nM.

With `COC(=O)c1ccccc1CS(=O)(=O)N(C[C@H]1CCC2=Cc3c(cnn3-c3ccc(F)cc3)C[C@@]21C)C[C@H](C)O` [Example 181, methyl 2-[({{[(4αR,5S)-1-(4-fluorophenyl)-4α-methyl-1,4,4α,5,6,7-hexahydrocyclopenta[f]indazol-5-yl]methyl}[(2S)-2-hydroxypropyl]amino}sulfonyl)methyl]benzoate], affinity was put at a Ki of 2.8 nM.

As for `C[C@@H](O)CN(C[C@H]1CCC2=Cc3c(cnn3-c3ccc(F)cc3)C[C@@]21C)S(=O)(=O)Cc1ccccc1C(=O)O` [Example 182, 2-[({{[(4αR,5S)-1-(4-fluorophenyl)-4α-methyl-1,4,4α,5,6,7-hexahydrocyclopenta[f]indazol-5-yl]methyl}[(2R)-2-hydroxypropyl]amino}sulfonyl)methyl]benzoic acid], the affinity corresponds to a Ki of 93.9 nM.

As to `C[C@H](O)CN(C[C@H]1CCC2=Cc3c(cnn3-c3ccc(F)cc3)C[C@@]21C)S(=O)(=O)Cc1ccccc1C(=O)O` [Example 183, 2-[({{[(4αR,5S)-1-(4-fluorophenyl)-4α-methyl-1,4,4α,5,6,7-hexahydrocyclopenta[f]indazol-5-yl]methyl}[(2S)-2-hydroxypropyl]amino}sulfonyl)methyl]benzoic acid], the inhibitory constant (Ki) turned out to be 64 nM.

`C[C@@H](O)CN(C[C@H]1CCC2=Cc3c(cnn3-c3ccc(F)cc3)C[C@@]21C)S(=O)(=O)Cc1ccccc1C(N)=O` [Example 184, 2-[({{[(4αR,5S)-1-(4-fluorophenyl)-4α-methyl-1,4,4α,5,6,7-hexahydrocyclopenta[f]indazol-5-yl]methyl}[(2R)-2-hydroxypropyl]amino}sulfonyl)methyl]benzamide] had a Ki of 9.6 nM.

Take `C[C@H](O)CN(C[C@H]1CCC2=Cc3c(cnn3-c3ccc(F)cc3)C[C@@]21C)S(=O)(=O)Cc1ccccc1C(N)=O` [Example 185, 2-[({{[(4αR,5S)-1-(4-fluorophenyl)-4α-methyl-1,4,4α,5,6,7-hexahydrocyclopenta[f]indazol-5-yl]methyl}[(2S)-2-hydroxypropyl]amino}sulfonyl)methyl]benzamide]: the Ki was 13.1 nM.

On to `COC(=O)c1ccccc1S(=O)(=O)N(C[C@H]1CCC2=Cc3c(cnn3-c3ccc(F)cc3)C[C@@]21C)C[C@@H](C)O` [Example 186, methyl 2-({{[(4αR,5S)-1-(4-fluorophenyl)-4α-methyl-1,4,4α,5,6,7-hexahydrocyclopenta[f]indazol-5-yl]methyl}[(2R)-2-hydroxypropyl]amino}sulfonyl)benzoate], for which affinity was put at a Ki of 1.9 nM.

`COC(=O)c1ccccc1S(=O)(=O)N(C[C@H]1CCC2=Cc3c(cnn3-c3ccc(F)cc3)C[C@@]21C)C[C@H](C)O` [Example 187, methyl 2-({{[(4αR,5S)-1-(4-fluorophenyl)-4α-methyl-1,4,4α,5,6,7-hexahydrocyclopenta[f]indazol-5-yl]methyl}[(2S)-2-hydroxypropyl]amino}sulfonyl)benzoate]: the Ki was 2.5 nM.
